In patent US9493451B2 (Bionomics Limited, priority 2011, dated 2016):

Biological target: T1, Kv1.3 (Homo sapiens, UniProt P22001)
T1 construct: expressed in transfected cells; host or cells: CHO (Kv1.3/CHO)
Assay: Electrophysiology: planar patch-clamp of Kv1.3 currents, IC50 from steady state current amplitude
Format: cell-based
Details: Kv1.3 electrophysiology, results according to Method D1, read-out: IC50 (Kv1.3 ephys steady state)
Protocol: The inhibition data shown for the compounds of the list below was calculated using the steady state current amplitude at the end of the depolarising pulse in patch clamp evaluations (as described in the Biology Protocols: 1. Electrophysiology).
Kv1.x currents were measured in Kv1.3/CHO or Kv1.5/CHO cells using a planar electrode version (Nanion Technologies GMBH) of the patch-clamp technique. Whole-cell Kv1.x current transients were evoked by 500 ms depolarising voltage pulses to +40 mV from a holding potential of −80 mV applied at 10 s intervals for Kv1.5 and at 30 s intervals for Kv1.3 to allow adequate time for recovery from inactivation. Cells were continuously bathed in a buffered saline solution containing (mM): 160 NaCl, 4.5 KCl, 2 CaCl2, 1 MgCl2, 5 glucose, 10 HEPES, pH 7.4, 290-310 mOsm·Kg^−1. The internal (pipette) solution contained (mM): 10 NaCl, 70 KF, 75 KCl, 2 MgCl2, 10 HEPES, 10 EGTA, pH 7.2, 290-310 mOsm·Kg^−1. Series resistance compensation (60-80%) was applied to cells in which the peak current amplitude exceeded 2 nA.
Compound Preparation and Potency Assessment
Compounds were initially dissolved in DMSO to 10 mM. After further dilution in DMSO, compounds were finally diluted in bath solution 1/200 (to give a final DMSO concentration of 0.5%) and applied directly to the recording chamber. Compounds were added at increasing concentrations allowing ample time for steady state block to be achieved between each concentration. Each compound was tested at 5-6 different concentrations on 2-3 cells. Compound IC50 values were determined by fitting the average normalised reduction of either the current integral or the steady state current amplitude at the end of the 500 ms depolarising pulse obtained at each compound concentration to the Hill equation. The IC50 data reported herein is based on the steady state calculation.

T1 sequence (P22001 whole entry): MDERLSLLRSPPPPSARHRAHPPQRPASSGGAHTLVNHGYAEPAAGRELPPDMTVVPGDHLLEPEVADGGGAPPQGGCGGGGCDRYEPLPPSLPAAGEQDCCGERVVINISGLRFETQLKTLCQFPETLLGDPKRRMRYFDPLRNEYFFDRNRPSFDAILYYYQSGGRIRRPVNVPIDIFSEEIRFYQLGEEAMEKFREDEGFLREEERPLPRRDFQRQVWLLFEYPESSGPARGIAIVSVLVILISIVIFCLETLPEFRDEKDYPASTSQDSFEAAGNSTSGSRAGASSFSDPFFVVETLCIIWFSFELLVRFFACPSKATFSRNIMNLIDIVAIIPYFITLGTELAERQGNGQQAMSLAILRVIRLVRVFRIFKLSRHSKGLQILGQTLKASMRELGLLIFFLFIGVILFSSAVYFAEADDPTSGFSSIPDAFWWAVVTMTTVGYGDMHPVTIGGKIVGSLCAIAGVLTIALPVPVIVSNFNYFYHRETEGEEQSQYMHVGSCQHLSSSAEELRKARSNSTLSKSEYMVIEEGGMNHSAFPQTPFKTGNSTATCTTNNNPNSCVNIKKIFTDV

CCC(c1ccc(S(C)(=O)=O)cc1)N(Cc1ccc(F)cn1)C(=O)C1CC1c1ccc(F)cc1 (stereo not drawn) [Example 122]
IC50: 50 to 200 nM

CCC(c1ccc(S(=O)(=O)CC)cc1)N(Cc1ccc(F)cn1)C(=O)C1CC1c1ccc(F)cc1 (stereo not drawn) [Example 117]
IC50: 50 to 200 nM

CCS(=O)(=O)c1ccc(C(C2CC2)N(Cc2ccc(F)cn2)C(=O)C2CC2c2ccc(F)cc2F)cc1 (stereo not drawn) [Example 230]
IC50: 50 to 200 nM

CC(C)C(c1ccc(F)cc1)N(CCC1CCNCC1)C(=O)CS(=O)(=O)c1ccc(F)cc1 (stereo not drawn) [Example 284]
IC50: 200 to 1000 nM

COc1ccc(CN(C(=O)CS(=O)(=O)c2ccc(F)cc2)C(c2ccc(Cl)cc2)C2CC2)cn1 (stereo not drawn) [Example 295]
IC50: 50 to 200 nM

O=C(C1CC1c1ccc(F)cc1)N(CCN1CCCC(F)(F)C1)C(c1ccc(OC(F)F)cc1)C1CC1 (stereo not drawn) [Example 186]
IC50: 200 to 1000 nM

CC(C)C(c1ccc(OC(F)F)cc1)N(Cc1ccc(F)cn1)C(=O)C1CC1c1ccc(F)cc1F (stereo not drawn) [Example 115]
IC50: 50 to 200 nM

O=C(CS(=O)(=O)c1ccc(F)cc1)N(Cc1ccc(F)cn1)C(c1ccc(Cl)cc1)C1CC1 (stereo not drawn) [Example 290]
IC50: 50 to 200 nM

CN1C2CCC1CC(N(C(=O)CS(=O)(=O)c1ccc(F)cc1)C(c1ccc(Cl)cc1)C1CC1)C2 (stereo not drawn) [Example 80, N-[(4-chlorophenyl)(cyclopropyl)methyl]-2-[(4-fluorophenyl)sulfonyl]-N-(8-methyl-8-azabicyclo[3.2.1]octan-3-yl)acetamide]
IC50: 200 to 1000 nM

CCC(c1ccc(S(=O)(=O)CC)cc1)N(Cc1ccc(F)cn1)C(=O)C1CC1c1ccc(F)cc1 (stereo not drawn) [Example 116]
IC50: 200 to 1000 nM

C[C@@H](CC(=O)N(Cc1ccccn1)[C@H](c1ccc(Cl)cc1)C1CC1)S(=O)(=O)c1ccc(F)cc1 (single isomer, unassigned) [Example 76, N-[(4-chlorophenyl)(cyclopropyl)methyl]-3-[(4-fluorophenyl)sulfonyl]-N-(pyridin-2-ylmethyl)butanamide]
IC50: < 50 nM

CC(C)S(=O)(=O)c1ccc(C(C2CC2)N(Cc2ncccc2F)C(=O)C2CC2c2ccc(F)cc2)cc1 (stereo not drawn) [Example 234]
IC50: 200 to 1000 nM

CCS(=O)(=O)c1cccc(C(C2CC2)N(Cc2ccc(F)cn2)C(=O)C2CC2c2ccc(F)cc2F)c1 (stereo not drawn) [Example 196]
IC50: 50 to 200 nM

O=C(CS(=O)(=O)c1ccc(F)cc1)N(C1CCC(F)(F)CC1)C(c1ccc(OC(F)F)cc1)C1CC1 (stereo not drawn) [Example 315]
IC50: 200 to 1000 nM

CCS(=O)(=O)c1ccc(C(C2CC2)N(Cc2ccc(F)cn2)C(=O)C2CC2c2cccc(C(F)(F)F)c2)cc1 (stereo not drawn) [Example 227]
IC50: 50 to 200 nM

CCS(=O)(=O)c1cccc(C(C2CC2)N(Cc2ccncn2)C(=O)C2CC2c2ccc(F)cc2)c1 (stereo not drawn) [Example 192]
IC50: 200 to 1000 nM

CCS(=O)(=O)c1cccc(C(C2CC2)N(Cc2ccccn2)C(=O)C2CC2c2cccc(C(F)(F)F)c2)c1 (stereo not drawn) [Example 216]
IC50: 50 to 200 nM

O=C(C1CC1c1ccc(F)cc1)N(Cc1ccc(F)cn1)C(c1ccc(OC(F)F)cc1)C1CNC1 (stereo not drawn) [Example 153]
IC50: 1000 to 2000 nM

CN1CC(C(c2ccc(OC(F)F)cc2)N(Cc2ccc(C(F)(F)F)cn2)C(=O)C2CC2c2ccc(F)cc2)C1 (stereo not drawn) [Example 160]
IC50: 200 to 1000 nM

O=C(CS(=O)(=O)c1ccc(F)cc1)N(Cc1ccc(C(F)(F)F)nc1)C(c1ccc(OC(F)F)cc1)C1CC1 (stereo not drawn) [Example 312]
IC50: 50 to 200 nM

CC(C)S(=O)(=O)c1ccc(C(C2CC2)N(Cc2cccnn2)C(=O)C2CC2c2ccc(F)cc2)cc1 (stereo not drawn) [Example 236]
IC50: 50 to 200 nM

Cc1cccc(CN(C(=O)CS(=O)(=O)c2ccc(F)cc2)C(c2ccccc2OC(F)(F)F)C2CC2)n1 (stereo not drawn) [Example 331]
IC50: 50 to 200 nM

CCS(=O)(=O)c1cccc(C(C2CC2)N(Cc2cccnn2)C(=O)C2CC2c2cccc(C(F)(F)F)c2)c1 (stereo not drawn) [Example 225]
IC50: 200 to 1000 nM

CCS(=O)(=O)c1cccc([C@@H](C2CC2)N(Cc2ccc(C(F)(F)F)nc2)C(=O)[C@@H]2C[C@H]2c2ccc(F)cc2)c1 (single isomer, unassigned) [Example 99]
IC50: < 50 nM

CC(C)C(c1ccc(OC(F)F)cc1)N(Cc1cccnn1)C(=O)C1CC1c1ccc(F)cc1 (stereo not drawn) [Example 113]
IC50: 200 to 1000 nM

Cn1cncc1CN(C(=O)C1CC1c1ccc(F)cc1)C(c1ccc(OC(F)F)cc1)C1CC1 (stereo not drawn) [Example 189]
IC50: 200 to 1000 nM

O=C(C1CC1c1ccc(F)cc1)N(Cc1ccc(F)cn1)C(c1ccc(F)cc1)C1CCOC1 (stereo not drawn) [Example 176]
IC50: 50 to 200 nM

CC(c1ccc(S(C)(=O)=O)cc1)N(Cc1cccnn1)C(=O)C1CC1c1ccc(F)cc1 (stereo not drawn) [Example 123]
IC50: 200 to 1000 nM

CN1CC(C(c2ccc(OC(F)(F)F)cc2)N(Cc2cncc(F)c2)C(=O)C2CC2c2ccc(F)cc2)C1 (stereo not drawn) [Example 162]
IC50: 200 to 1000 nM

CCC(c1ccc(S(C)(=O)=O)cc1)N(Cc1ccc(C(F)(F)F)nc1)C(=O)C1CC1c1ccc(F)cc1F (stereo not drawn) [Example 128]
IC50: 50 to 200 nM

O=C(C1CC1c1ccc(F)cc1)N(Cc1ncccc1F)C(c1ccc(F)cc1)C1CCOC1 (stereo not drawn) [Example 171]
IC50: 200 to 1000 nM

CCS(=O)(=O)c1ccc(C(C2CC2)N(Cc2ccc(F)cn2)C(=O)C2CC2c2ccc(F)cc2)cc1 (stereo not drawn) [Example 233]
IC50: 50 to 200 nM

O=C(CS(=O)(=O)c1ccccc1F)N(Cc1ccc(C(F)(F)F)nc1)C(c1ccc(OC(F)F)cc1)C1CC1 (stereo not drawn) [Example 300]
IC50: 50 to 200 nM

O=C(C1CC1c1ccccc1OC(F)(F)F)N(Cc1cccnn1)C(c1ccc(OC(F)F)cc1)C1CC1 (stereo not drawn) [Example 188]
IC50: 50 to 200 nM

CCS(=O)(=O)c1cccc(C(C2CC2)N(Cc2cncc(F)c2)C(=O)C2CC2c2ccc(F)cc2)c1 (stereo not drawn) [Example 214]
IC50: 50 to 200 nM

CCS(=O)(=O)c1ccc(C(C2CC2)N(Cc2ccc(F)cn2)C(=O)C2CC2c2cccc(C(F)(F)F)c2)cc1 (stereo not drawn) [Example 228]
IC50: 50 to 200 nM

CCS(=O)(=O)c1cccc(C(C2CC2)N(Cc2ccccn2)C(=O)C2CC2c2cccc(C(F)(F)F)c2)c1 (stereo not drawn) [Example 217]
IC50: 50 to 200 nM

O=C(C1CC1c1ccc(F)cc1)N(Cc1cccnn1)C(c1ccc(S(=O)(=O)C2CC2)cc1)C1CC1 (stereo not drawn) [Example 248]
IC50: 200 to 1000 nM

CN1CC(C(c2ccc(OC(F)(F)F)cc2)N(Cc2ccc(F)cn2)C(=O)C2CC2c2ccc(F)cc2)C1 (stereo not drawn) [Example 159]
IC50: 200 to 1000 nM

CCS(=O)(=O)c1ccc(C(C2CC2)N(Cc2ccc(F)cn2)C(=O)CC(C)c2ccccc2C(F)(F)F)cc1 (stereo not drawn) [Example 269]
IC50: 50 to 200 nM

CC(c1ccc(Cl)cc1)N(C(=O)CS(=O)(=O)c1ccc(F)cc1)C1CC2CCC(C1)N2C (stereo not drawn) [Example 280]
IC50: 200 to 1000 nM

O=C(C1CC1c1ccc(F)cc1)N(Cc1ccc(F)cn1)C(c1ccc(OC(F)F)cc1)C1CNC1 (stereo not drawn) [Example 152]
IC50: 200 to 1000 nM

CC(CC(=O)N(Cc1ccc(F)cn1)C(c1ccc(F)cc1F)C1CCN(C)CC1)c1ccc(F)cc1 (stereo not drawn) [Example 271]
IC50: 200 to 1000 nM

CC(C)S(=O)(=O)c1cccc(C(C2CC2)N(Cc2ncccc2F)C(=O)C2CC2c2ccc(F)cc2)c1 (stereo not drawn) [Example 246]
IC50: 200 to 1000 nM

CCS(=O)(=O)c1cccc(C(C2CC2)N(C(=O)C2CC2c2ccc(F)cc2)C2CCC(F)(F)CC2)c1 (stereo not drawn) [Example 219]
IC50: 50 to 200 nM

CC(C(=O)N(Cc1ccccn1)C(c1ccc(Cl)cc1)C1CC1)S(=O)(=O)c1ccc(F)cc1 (single isomer, unassigned) [Example 296]
IC50: < 50 nM

CC(C)S(=O)(=O)c1cccc(C(C2CC2)N(Cc2ccc(F)cn2)C(=O)C2CC2c2ccc(F)cc2)c1 (stereo not drawn) [Example 243]
IC50: 50 to 200 nM

O=C(C1CC1c1ccc(F)cc1)N(Cc1cccnn1)C(c1ccc(S(=O)(=O)C2CC2)cc1)C1CC1 (stereo not drawn) [Example 249]
IC50: 50 to 200 nM
